Tests used:
[1] = biological target: T1, OATP1B1 (Homo sapiens, UniProt Q9Y6L6)
T1 sequence (Q9Y6L6 1-691): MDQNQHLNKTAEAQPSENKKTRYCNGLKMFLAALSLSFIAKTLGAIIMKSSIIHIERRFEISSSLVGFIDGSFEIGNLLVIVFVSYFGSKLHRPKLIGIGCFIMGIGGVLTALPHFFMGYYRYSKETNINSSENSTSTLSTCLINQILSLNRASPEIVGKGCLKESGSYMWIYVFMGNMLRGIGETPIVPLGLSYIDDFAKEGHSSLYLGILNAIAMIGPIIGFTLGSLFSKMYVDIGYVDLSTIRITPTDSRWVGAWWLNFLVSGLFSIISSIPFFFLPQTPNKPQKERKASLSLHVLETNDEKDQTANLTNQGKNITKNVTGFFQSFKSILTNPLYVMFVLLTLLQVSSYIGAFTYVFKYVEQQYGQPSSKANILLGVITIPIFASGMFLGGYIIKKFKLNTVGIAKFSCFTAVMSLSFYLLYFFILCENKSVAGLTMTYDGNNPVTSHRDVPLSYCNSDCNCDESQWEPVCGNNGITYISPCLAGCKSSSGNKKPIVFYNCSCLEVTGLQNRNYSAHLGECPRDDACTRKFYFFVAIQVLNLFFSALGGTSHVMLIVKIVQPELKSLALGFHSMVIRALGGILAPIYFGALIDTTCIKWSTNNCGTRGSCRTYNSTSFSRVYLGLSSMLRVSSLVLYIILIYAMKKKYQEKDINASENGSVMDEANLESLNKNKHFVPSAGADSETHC

[2] = test system: CYP2C9; design: method as in PMID 35279606; details: previous study; read-out: CYP2C9 inhibition IC50; cited from earlier work
[3] = biological target: T2, OCT2 (Homo sapiens, UniProt O15244)
T2 sequence (O15244 1-555): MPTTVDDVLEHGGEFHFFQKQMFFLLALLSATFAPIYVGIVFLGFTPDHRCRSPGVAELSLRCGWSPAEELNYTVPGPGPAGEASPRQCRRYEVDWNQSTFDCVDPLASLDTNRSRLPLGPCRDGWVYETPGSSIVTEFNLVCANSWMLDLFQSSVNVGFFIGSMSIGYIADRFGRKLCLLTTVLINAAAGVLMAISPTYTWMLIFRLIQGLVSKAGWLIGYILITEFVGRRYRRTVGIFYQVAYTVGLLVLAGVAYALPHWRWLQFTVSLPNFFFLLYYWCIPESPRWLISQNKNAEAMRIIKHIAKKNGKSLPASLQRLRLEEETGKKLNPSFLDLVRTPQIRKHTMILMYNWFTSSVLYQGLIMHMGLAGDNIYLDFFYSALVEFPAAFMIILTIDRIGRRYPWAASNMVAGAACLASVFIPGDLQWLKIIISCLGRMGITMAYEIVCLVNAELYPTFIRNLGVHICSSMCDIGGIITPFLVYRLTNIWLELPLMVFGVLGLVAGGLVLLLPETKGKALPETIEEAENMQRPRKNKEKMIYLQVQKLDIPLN

[4] = test system: 5-HT2A receptors; design: method as in PMID 35279606; details: head twitches test in rats; cited from earlier work
[5] = biological target: 5-HT2A receptor; design: method as in PMID 35279606; details: cited from earlier work
[6] = test system: CYP2C9; test: Metabolic phenotype by rhCYP isozymes, CYP2C9; format: in vitro ADME, human; details: 7–16 1 µM
Experimental: Based on the result of metabolite identification, two metabolites were selected as targets for metabolic phenotyping analysis. Seven CYP isozymes (CYP1A2, CYP2B6, CYP2C8, CYP2C9, CYP2C19, CYP2D6, and CYP3A4) were investigated using the rhCYP isozymes method. In brief, 7–16 (1 µΜ) was incubated with each rhCYP isozyme ([…]) in 100 mM sodium phosphate buffer (pH 7.4) containing 3 mM magnesium chloride. After 10 min of preincubation at 37 °C, the reactions were initiated by adding NADPH (1 mM) and then incubated at 37 °C in a shaking water bath for 0, 5, 15, and 30 min. The specific substrates of each rhCYP isozyme were incubated as the above method to confirm the activity of the incubation system. The samples were prepared in triplicates. The reactions were terminated by adding three times the volume of ice-cold acetonitrile (600 µL) and stored at −20 °C until analysis. After pre-treatment, the samples were determined by the LC–MS/MS (Shimadzu Exion-Triple Quad 4500) method. The relative contribution rate of each isozyme to the metabolism of 7–16 was evaluated in HLMs using the following formula: Contributionx% = Vx × Abundancex (pmol/mg protein)/Σ(Vi × Abundancei). Vx (µL/min/pmol) is the production rate of metabolites for each rhCYP isozyme.

[7] = Excretion and metabolite identification in bile duct cannulated (BDC) rats; format: in vivo, Sprague-Dawley rats
Experimental: In the urine and feces excretion experiment, six rats (3 females and 3 males) were administered a single oral dose of [^14C]7–16 at 3 mg/100 µCi/kg. Urine, feces and cage washing/cleaning solution samples were collected from 0 to 168 h following drug administration at the following time intervals: 0–8, 8–24 h (0–24 h for feces), 24–48, 48–72, 72–96, 96–120, 120–144, and 144–168 h. In the biliary excretion experiment, 8 rats using a bile duct cannula (BDC) (4 females and 4 males) were administered a single oral dose of [^14C]7–16 at 3 mg/100 µCi/kg. Bile, urine, feces, and cage washing solution were collected from before and 0–72 h after oral administration at the following time intervals: 0–4, 4–8 (urine 0–8), 8–24 (feces 0–24), 24–48, and 48–72 h. All samples were collected and refrigerated at −20 °C until determination of the radioactive concentrations by liquid scintillation counter (Perkin Elmer Corporation, Waltham, MA, USA). Urine, feces, and bile samples at each time period were mixed by equal percentages of either volume or weight. After the mixed samples were treated, the radio-profiles and metabolite identification in the bile, urine, and feces samples were carried out by LC-RAM and UPLC-Q Exactive HRMS, and the TRA% of each metabolite in plasma and the percentage of dose (dose%) of each compound in urine, feces, and bile samples were calculated.

**Q.** What does the source list for `CN1CCC(N(Cc2ccc(F)cn2)C(=O)NCc2ccc(OCC(F)(F)F)cc2)CC1` [7–16, 3-(4-(2,2,2-trifluoroethoxy)benzyl)-1-((5-fluoropyridin-2-yl)methyl)-1-(1-methylpiperidin-4-yl) urea]?
**A.** IC50 [1]: > 100 µM; IC50 [2]: > 62.9 µM; IC50 [3]: 72.5 µM; potency for blocking 5-HT2A receptors relative to pimavanserin [4]: at least four times more potent than pimavanserin; IC50 ([5]; previous study, read-out: 5-HT2A receptor antagonist activity IC50): 0.00054 µM; fold higher 5-HT2A receptor antagonist activity than pimavanserin ([5]; versus pimavanserin): 50 fold; relative contribution of CYP2C9 to metabolism [6]: little or no contribution; recovery of radioactivity in bile, percent of dose ([7]; BDC rats, 0–72 h): 18.4%; recovery of radioactivity in cage rinse/wash, percent of dose ([7]; BDC rats, 0–72 h): 3.42%; recovery of radioactivity in feces, percent of dose ([7]; BDC rats, 0–72 h): 20.2%; recovery of radioactivity in urine, percent of dose ([7]; BDC rats, 0–72 h): 56.3%; total recovery of radioactivity, percent of dose ([7]; BDC rats, 0–72 h, oral 3 mg/100 µCi/kg, mean of both sexes): 98.3%; recovery of radioactivity within the first 24 h, percent of dose ([7]; BDC rats, first 24 h post-administration): 82.8%; absorption rate ([7]; calculated from dose excreted in bile and urine of BDC rats, oral): at least 74.7%
